Test system: luciferase transgenic rat-derived oral mucosal cell sheet
Test: Residual ATP level in luciferase transgenic rat-derived oral mucosal cell sheet after preservation and post-preservation culture
Format: cell-based
Conditions: tBHQ in HBSS (1 μM, 10 μM, 100 μM)
Procedure: An oral tissue of a luciferase transgenic rat (Hakamata Y, Murakami T, Kobayashi E., Transplantation 2006; 81(8): 1179-1184) was provided by Dr. Eiji Kobayashi in the Division of Development of Advanced Treatment, Jichi Medical University. The oral tissue was washed twice with DMEM (Gibco) supplemented with 1% antibiotics and antimycotics (AbAm, Gibco). The washed tissue was immersed in a solution of dispase I (1,000 PU/ml) in DMEM supplemented with 1% AbAm at 4° C. for 4 hours. After the dispase treatment, the tissue was transferred into a 0.02% EDTA solution (nacalai tesque), immersed therein at room temperature for 2 minutes, and washed twice with PBS. […]
The ATP level in a cell sheet correlates with the viability of the cell sheet. The ATP levels in a cell sheet before preservation, after preservation and after post-preservation culture were measured as an indicator of the viability of the cell sheet. […] After this, the 96-well plate was set in a luminescence microplate reader Centro LB960 (Berthold Technologies GmbH & Co. KG), and according to the device settings of the microplate reader, addition of luciferin (final concentration; 0.19 mg/ml) and measurement of the ATP level were conducted. The measurement temperature was 4° C., the single reading time was 2 seconds, and the total reading time was 12 minutes. […]

## CC(C)(C)c1cc(O)ccc1O [tBHQ, tert-butylhydroquinone]
  residual ATP level after 7 days of preservation compared with HBSS without additive: higher

Source: patent publication US20150351380A1, “TISSUE-PRESERVING LIQUID AND TISSUE-PRESERVING METHOD” (OSAKA UNIVERSITY, priority 2012, published 2015)
